Laboratory results taken from patent publication US11180474B2 (BRISTOL-MYERS SQUIBB COMPANY, priority 2016, dated 2021).
pIC50: −log10 of the molar value.

Legend:
human TLR7 = biological target: T1, human TLR7 (Homo sapiens, UniProt Q9NYK1); test: TLR7 inhibition reporter assay (HEK-Blue cells, SEAP reporter, gardiquimod stimulation); type: cell-based; conditions: HEK-Blue cells overexpressing human TLR7, gardiquimod 7.5 μM
T1 construct: host or cells: HEK-Blue cells
T1 sequence (Q9NYK1 27-1049): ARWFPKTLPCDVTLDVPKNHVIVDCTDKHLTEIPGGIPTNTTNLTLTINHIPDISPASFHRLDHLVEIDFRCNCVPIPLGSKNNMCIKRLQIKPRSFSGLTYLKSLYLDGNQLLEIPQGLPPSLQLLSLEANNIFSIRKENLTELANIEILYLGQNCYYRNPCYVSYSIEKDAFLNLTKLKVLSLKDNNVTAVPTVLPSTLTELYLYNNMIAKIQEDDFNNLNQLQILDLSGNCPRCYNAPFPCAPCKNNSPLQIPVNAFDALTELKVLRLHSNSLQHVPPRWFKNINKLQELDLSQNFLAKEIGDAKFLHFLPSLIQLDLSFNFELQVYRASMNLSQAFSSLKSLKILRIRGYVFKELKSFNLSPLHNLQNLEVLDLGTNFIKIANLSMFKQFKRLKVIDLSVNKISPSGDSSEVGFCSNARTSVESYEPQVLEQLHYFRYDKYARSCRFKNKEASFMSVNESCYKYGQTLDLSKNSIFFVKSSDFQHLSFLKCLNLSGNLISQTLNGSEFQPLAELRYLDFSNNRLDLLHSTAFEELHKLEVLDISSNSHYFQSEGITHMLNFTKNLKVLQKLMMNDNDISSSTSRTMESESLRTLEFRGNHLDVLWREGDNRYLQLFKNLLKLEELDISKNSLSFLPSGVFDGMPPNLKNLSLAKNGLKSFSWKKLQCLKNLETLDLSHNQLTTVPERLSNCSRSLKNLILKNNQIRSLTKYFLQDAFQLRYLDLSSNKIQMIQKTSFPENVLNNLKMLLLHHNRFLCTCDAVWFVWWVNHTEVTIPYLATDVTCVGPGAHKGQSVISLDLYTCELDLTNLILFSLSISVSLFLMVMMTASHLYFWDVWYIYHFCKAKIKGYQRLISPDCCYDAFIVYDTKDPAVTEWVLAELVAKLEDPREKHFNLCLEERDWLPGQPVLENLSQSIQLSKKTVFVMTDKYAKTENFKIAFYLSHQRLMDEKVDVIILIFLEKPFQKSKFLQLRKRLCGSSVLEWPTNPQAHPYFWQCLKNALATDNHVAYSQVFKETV
Procedure, shortened: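 Cells (15000/well for TLR7, 20,000 for TLR8) were treated with compounds over 0.05 nM-50 μM final. After 22 h at 37° C, 5% CO2, SEAP was measured with HEK-Blue Detection reagent; percent inhibition was taken as reduction of agonist-plus-DMSO signal relative to a known inhibitor.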

human TLR9 = biological target: T2, human TLR9 (Homo sapiens, UniProt Q9NR96); test: TLR9 inhibition reporter assay (HEK-Blue cells, SEAP reporter, ODN2006 stimulation); type: cell-based; conditions: HEK-Blue cells overexpressing human TLR9, ODN2006 5 nM
T2 construct: host or cells: HEK-Blue cells
T2 sequence (Q9NR96 26-1032): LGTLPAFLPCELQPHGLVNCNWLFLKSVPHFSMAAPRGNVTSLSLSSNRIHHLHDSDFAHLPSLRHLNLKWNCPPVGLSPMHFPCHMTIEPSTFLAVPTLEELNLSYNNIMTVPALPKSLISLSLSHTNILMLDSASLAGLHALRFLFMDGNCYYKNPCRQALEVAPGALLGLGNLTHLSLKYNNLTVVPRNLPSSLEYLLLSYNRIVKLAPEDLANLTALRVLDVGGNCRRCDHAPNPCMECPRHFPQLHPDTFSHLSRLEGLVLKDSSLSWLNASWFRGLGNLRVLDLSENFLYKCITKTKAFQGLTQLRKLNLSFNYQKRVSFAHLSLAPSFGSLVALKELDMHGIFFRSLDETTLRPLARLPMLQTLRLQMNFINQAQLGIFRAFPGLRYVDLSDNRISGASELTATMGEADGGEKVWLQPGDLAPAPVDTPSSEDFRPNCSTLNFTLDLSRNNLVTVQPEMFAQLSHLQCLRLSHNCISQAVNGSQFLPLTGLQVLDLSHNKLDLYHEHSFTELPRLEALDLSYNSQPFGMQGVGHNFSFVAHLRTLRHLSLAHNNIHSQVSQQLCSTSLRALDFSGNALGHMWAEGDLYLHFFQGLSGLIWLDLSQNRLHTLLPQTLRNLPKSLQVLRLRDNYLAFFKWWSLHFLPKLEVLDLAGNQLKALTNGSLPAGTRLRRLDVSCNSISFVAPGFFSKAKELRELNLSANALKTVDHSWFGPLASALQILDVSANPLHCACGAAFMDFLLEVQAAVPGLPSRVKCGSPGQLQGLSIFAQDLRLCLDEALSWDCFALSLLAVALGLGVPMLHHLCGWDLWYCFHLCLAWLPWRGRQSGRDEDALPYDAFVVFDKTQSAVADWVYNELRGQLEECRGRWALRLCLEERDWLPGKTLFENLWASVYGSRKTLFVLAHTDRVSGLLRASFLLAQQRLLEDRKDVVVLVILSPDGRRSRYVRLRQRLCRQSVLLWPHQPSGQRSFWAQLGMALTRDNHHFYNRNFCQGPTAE
Procedure, shortened: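 Human TLR7/8/9 HEK-Blue reporter lines; dose range 0.05 nM–50 μM; 30 min RT preincubation; stimulus gardiquimod 7.5 μM / R848 15.9 μM / ODN2006 5 nM respectively; 22 h, 37 °C; SEAP detected colorimetrically.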

SMILES	pIC50 (human TLR7)	pIC50 (human TLR9)
COc1ccc(-c2[nH]c3ccc(C4CCN(C5CCN(CC(C)C)C5)CC4)cc3c2C)cc1OC (stereo not drawn) [Example 85, 2-(3,4-dimethoxyphenyl)-5-(1-(1-isobutylpyrrolidin-3-yl)piperidin-4-yl)-3-methyl-1H-indole]	6.04	6.61
COc1ccc(-c2[nH]c3ccc(C4CCN(C5CCCN(C(C)C)CC5)CC4)cc3c2C)cc1OC (stereo not drawn) [Example 92, 2-(3,4-dimethoxyphenyl)-5-(1-(1-isopropylazepan-4-yl)piperidin-4-yl)-3-methyl-1H-indole]	6.24	7.23
COc1ccc(-c2[nH]c3ccc(C4CCN(C5CCCN(C6COC6)CC5)CC4)cc3c2C)cc1OC (stereo not drawn) [Example 96, 2-(3,4-dimethoxyphenyl)-3-methyl-5-(1-(1-(oxetan-3-yl)azepan-4-yl)piperidin-4-yl)-1H-indole]	5.60	6.73
COc1ccc(-c2[nH]c3ccc(C4CCN(CCNC(=O)OC(C)(C)C)CC4)cc3c2C)cc1OC [Example 99, tert-butyl (2-(4-(2-(3,4-dimethoxyphenyl)-3-methyl-1H-indol-5-yl)piperidin-1-yl)ethyl)carbamate]	6.03	5.99
COc1ccc(-c2[nH]c3ccc(C4CCN(CCN)CC4)cc3c2C)cc1OC [Example 100, 2-(4-(2-(3,4-dimethoxyphenyl)-3-methyl-1H-indol-5-yl)piperidin-1-yl)ethan-1-amine]	6.76	6.27
COc1ccc(-c2[nH]c3ccc(C4CCN(CC5CCCCN5)CC4)cc3c2C)cc1OC (stereo not drawn) [Example 101, 2-(3,4-dimethoxyphenyl)-3-methyl-5-(1-(piperidin-2-ylmethyl)piperidin-4-yl)-1H-indole]	5.75	6.68
CNCCCN1CCC(c2ccc3[nH]c(-c4ccc(OC)c(OC)c4)c(C)c3c2)CC1 [Example 102, 3-(4-(2-(3,4-dimethoxyphenyl)-3-methyl-1H-indol-5-yl)piperidin-1-yl)-N-methylpropan-1-amine]	6.25	6.42
COc1ccc(-c2[nH]c3ccc(C4CCN(C5CCCNCC5)CC4)cc3c2C)cc1OC (stereo not drawn) [Example 103, 5-(1-(azepan-4-yl)piperidin-4-yl)-2-(3,4-dimethoxyphenyl)-3-methyl-1H-indole]	6.46	6.80
COc1ccc(-c2[nH]c3ccc(C4CCN(C5CCNC5)CC4)cc3c2C)cc1OC (stereo not drawn) [Example 104, 2-(3,4-dimethoxyphenyl)-3-methyl-5-(1-(pyrrolidin-3-yl)piperidin-4-yl)-1H-indole]	5.66	5.98
COc1ccc(-c2[nH]c3ccc(C4CCN(C5CCCC(N)C5)CC4)cc3c2C)cc1OC (stereo not drawn) [Example 105, 3-(4-(2-(3,4-dimethoxyphenyl)-3-methyl-1H-indol-5-yl)piperidin-1-yl)cyclohexan-1-amine]	6.84	6.41
COc1ccc(-c2[nH]c3ccc(C4CCN(C5CCCNC5)CC4)cc3c2C)cc1OC (stereo not drawn) [Example 106, 5-([1,3′-bipiperidin]-4-yl)-2-(3,4-dimethoxyphenyl)-3-methyl-1H-indole]	6.04	6.51
COc1ccc(-c2[nH]c3ccc(C4CCN(C[C@@H]5CCCN5)CC4)cc3c2C)cc1OC [Example 107, (S)-2-(3,4-dimethoxyphenyl)-3-methyl-5-(1-(pyrrolidin-2-ylmethyl)piperidin-4-yl)-1H-indole]	5.88	6.21
COc1ccc(-c2[nH]c3ccc(C4CCN(C[C@H]5CCCN5)CC4)cc3c2C)cc1OC [Example 108, (R)-2-(3,4-dimethoxyphenyl)-3-methyl-5-(1-(pyrrolidin-2-ylmethyl)piperidin-4-yl)-1H-indole]	5.45	6.06

Now from value to molecule:

pIC50 (human TLR7)	pIC50 (human TLR9)	SMILES
≤ 4.30	4.77	COc1ccc(-c2[nH]c3ccc(C4CCN(CCN(C)C5COC5)CC4)cc3c2C)cc1OC [Example 109, N-(2-(4-(2-(3,4-dimethoxyphenyl)-3-methyl-1H-indol-5-yl)piperidin-1-yl)ethyl)-N-methyloxetan-3-amine]
5.95	6.54	COc1ccc(-c2[nH]c3ccc(C4CCN(CCN(C)CC(C)C)CC4)cc3c2C)cc1OC [Example 110, N-(2-(4-(2-(3,4-dimethoxyphenyl)-3-methyl-1H-indol-5-yl)piperidin-1-yl)ethyl)-N,2-dimethylpropan-1-amine]
6.41	5.82	CCN(C)CCN1CCC(c2ccc3[nH]c(-c4ccc(OC)c(OC)c4)c(C)c3c2)CC1 [Example 111, 2-(4-(2-(3,4-dimethoxyphenyl)-3-methyl-1H-indol-5-yl)piperidin-1-yl)-N-ethyl-N-methylethan-1-amine]
6.60	6.50	COc1ccc(-c2[nH]c3ccc(C4CCN(CCN(C)CC5CC5)CC4)cc3c2C)cc1OC [Example 112, N-(cyclopropylmethyl)-2-(4-(2-(3,4-dimethoxyphenyl)-3-methyl-1H-indol-5-yl)piperidin-1-yl)-N-methylethan-1-amine]
6.43	6.05	CCNCC(=O)N1CCC(c2ccc3[nH]c(-c4ccc(OC)c(OC)c4)c(C)c3c2)CC1 [Example 113, 1-(4-(2-(3,4-dimethoxyphenyl)-3-methyl-1H-indol-5-yl)piperidin-1-yl)-2-(ethylamino)ethan-1-one]
5.87	6.05	CNCCN1CCC(c2ccc3[nH]c(-c4ccc(OC)c(OC)c4)c(CC4CC4)c3c2)CC1 [Example 117, 2-(4-(3-(cyclopropylmethyl)-2-(3,4-dimethoxyphenyl)-1H-indol-5-yl)piperidin-1-yl)-N-methylethanamine di-trifluoroacetic acid]
7.15	5.55	CCc1c(-c2ccc(OC)c(OC)c2)[nH]c2ccc(C3CCN(C(=O)CNCC(C)O)CC3)cc12 (stereo not drawn) [Example 157, 1-(4-(2-(3,4-dimethoxyphenyl)-3-ethyl-1H-indol-5-yl)piperidin-1-yl)-2-((2-hydroxypropyl)amino)ethan-1-one]
6.66	6.17	CCc1c(-c2ccc(OC)c(OC)c2)[nH]c2ccc(C3CCN(C(=O)CN4CCC(N5CCCCC5)CC4)CC3)cc12 [Example 158, 2-([1,4′-bipiperidin]-1′-yl)-1-(4-(2-(3,4-dimethoxyphenyl)-3-ethyl-1H-indol-5-yl)piperidin-1-yl)ethan-1-one]
